{"source": "patent US20050244472A1", "about": "“Intraocular drug delivery systems containing excipients with reduced toxicity and related methods” (Allergan, Inc., priority 2004, published 2005)", "key": {"[1]": {"experiment": "Osmolarity of excipient-containing incubating solutions", "format": "physicochemical", "description": "Osmolarity was measured using osmometer type 13/13DR from Roebling (Berlin, GR).\n(§1) For each concentration of tested compound, pH and osmolarity parameters were measured."}, "in vitro": {"experiment": "in vitro", "settings": "human", "excerpt": "(§2) Cell viability and cell morphology were examined to evaluate the toxicity of excipients on retinal pigment epithelial cells. The human retina cell line used in these experiments is the ARPE-19 cell line (human adult-derived retinal pigmented epithelial cells). […] They form tight-junctions with transepithelial resistance of monolayers (Dunn K C et al., supra). From a molecular standpoint, it appears that ARPE-19 express a huge pattern of genes similar to those expressed by human RPE from fresh explant which could account for their physiological function (Klimanskaya I. et al., “Derivation and comparative assessment of retinal pigment epithelium from human embryonic stem cells using transcriptomics”, Cloning and Stem Cells, 2004, 6(3):217-45).\n(§3) ARPE-19 cells are widely used as a retinal model that resemble physiological properties of RPE cells. Similar methods of culturing ARPE-19 cells and cytotoxicity assays can be found in Yeung et al., “Cytotoxicity of triamcinolone on cultured human retinal pigment epithelial cells: comparison with dexamethasone and hydrocortisone”, Jpn J. Ophthalmol, 2004; 48:236-242. Cell viability and cell morphology were examined using conventional colormetric and visual methods. Viability and morphology measurements were obtained at 24 hours, 48 hours, and 72 hours after exposure to an excipient composition.\n(§4) To assess cell viability, mitochondrial metabolism was quantified through conventional colorometric assays (i.e., the MTT assay). This colorimetric assay utilizes 3-(4,5-dimethylthiazol-2-yl)-2,5-diphenyltetrazolium bromide (MTT) and correlates mitochondrial metabolism and cell viability through measurement of dehydrogenase activity which converts a substrate into crystal. More specifically, the assay measures the activity of living cells through mitochondrial dehydrogenases. When dissolved in culture cell medium, MTT solution appears dark orange. Mitochondrial dehydrogenases of viable cells degrade MTT by cleaving the tetrazolium ring yielding to formation of a purple formazan crystal, which is insoluble in water. Crystals are subsequently dissolved in isopropanol solution. A resulting purple solution is spectrophotometrically measured. Cell viability is relative to amount of formazan and calculated as a percentage of remaining treated compared to non-treated cells.\n(§5) Results from the MTT assay were expressed as a percentage of cell viability calculated using the following equation: % cell viability=ODtest/ODcontrol×100.\n(§6) For each experiment, one concentration was performed in triplicate. Each point was spectrophotometrically read twice. Average of readings was calculated, then average from these 3 values was determined.\n(§7) After 3 experiments were independently completed under the same conditions, a graph was plotted with cell viability expressed as a function of concentration (dose response) and for various incubation period (time course). The IC50 was then estimated based on the graphed data.\n(§8) More specifically, cell density in 24-multiwell plates was observed on the day of the experiment to check if confluence of the cells was reached. Aliquots of MTT concentrated solutions were removed from a freezer at −20° C. and thawed at room temperature. Cell medium was warmed at 37° C. before use. Appropriated tubes for diluting compounds were prepared. Higher concentrations of each excipient agent was prepared. Serial dilution was then performed in cell medium (DMEM:F12+10% FBS).\n(§9) Cell culture medium in the 24-well plate was removed using vacuum-pump. Cells were then stimulated with 0.5 ml final volume for each concentration of one given excipient agent. Distribution of the excipient-containing solution was performed using automated pipet-aid in sterile environment (under PSM) or not depending on time of compounds and duration of incubation.\n(§10) After stimulation, cells were replaced in a CO2 incubator for the required time of exposure."}, "ARPE-19 cells [2]": {"system": "ARPE-19 cells", "experiment": "in vitro", "excerpt": "as §2, §3, §4, §5, §6, §7, §8, §9, §10"}, "ARPE-19 cells [3]": {"system": "ARPE-19 cells", "format": "cell-based", "description": "Cell morphology was visualized using light microscopy. Cell morphology observation using light microscopy permits determination of (i) cell number and density and (ii) whether or not cells in contact with an excipient agent display modified phenotype compared to a non-treated population of cells.\nCell morphology was analyzed in parallel by semi-quantitative scoring ranging from 5 to 1, from basal to lethal phenotype respectively, as shown in FIG. 23.\nMore specifically, cells were removed from an incubator for examination. Morphological shape of cells was visualized using a light microscope and CCD camera. Every 3 wells of a given concentration was observed through image analysis software. Then, a representative photograph describing the average appearance of cells was saved. The supernatant was either, kept for further predefined experiments to perform, or removed using vacuum-pump.\nResulting semi-quantitative scoring is represented as a function of time course and dose response. Score 5: wild type phenotype of non-treated cells, 100% confluent adherent cells. This phenotype very much vary following post-seeding time. For example, at confluence ARPE-19 cells at 1 day appear well defined with visible outer membrane and dark grey cytoplasm. After 3 days of confluence, limits between cells become less visible and cells adopt a more hexagonal shape and constitute an epithelium-like uniform dense structure. Score 4: density<100%. Cell shape has changed, some spaces are present between cells, few cells possibly detached. Score 3: […]. Spaces are sometimes present among cells, areas appears confluent while in others, cells detached. General cell shape starts showing non negligible alterations. Score 2: Cell density<50%. Cells adopt exclusively stressed appearance, presence of mass dead floating cells. Score 1: Cell density<10%. Presence of almost exclusively dead cells.\nBased on quotation, each condition of the applied compound was given a score which allow to a morphology evolution profile to be prepared, ie. cell morphology as a function of compound concentration and time of exposure. […]"}, "[4]": {"experiment": "pH of excipient-containing incubating solutions", "format": "physicochemical", "description": "as §1"}, "[5]": {"settings": "0.05% excipient dilution in culture medium"}, "[6]": {"settings": "0.1% excipient dilution in culture medium"}, "[7]": {"settings": "0.5% excipient dilution in culture medium"}, "[8]": {"settings": "1% excipient dilution in culture medium"}, "[9]": {"settings": "2% excipient dilution in culture medium"}, "[10]": {"settings": "[…] excipient dilution in culture medium"}}, "note": "Where two headings read alike, the source gives them in different places.", "data": [{"smiles": "OCc1ccccc1", "note": "[Benzyl alcohol, benzyl alcohol]", "values": [{"measurement": "mOsm", "setting": "[1]; [5]", "result": 293, "unit": "mOsm"}, {"measurement": "mOsm", "setting": "[1]; [6]", "result": 307, "unit": "mOsm"}, {"measurement": "mOsm", "setting": "[1]; [7]", "result": 347, "unit": "mOsm"}, {"measurement": "mOsm", "setting": "[1]; [8]", "result": 398, "unit": "mOsm"}, {"measurement": "mOsm", "setting": "[1]; [9]", "result": 493, "unit": "mOsm"}, {"measurement": "mOsm", "setting": "[1]; [10]", "result": 444, "unit": "mOsm"}, {"measurement": "cytotoxicity at 0.05 %", "setting": "in vitro", "result": "~45", "unit": "%"}, {"measurement": "viability at 24 h, 0.05 %", "setting": "in vitro; Cell Viability", "result": 56.1, "unit": "%"}, {"measurement": "viability at 24 h, 0.1 %", "setting": "in vitro; Cell Viability", "result": 48, "unit": "%"}, {"measurement": "viability at 48 h, 0.05 %", "setting": "in vitro; Cell Viability", "result": 60.9, "unit": "%"}, {"measurement": "viability at 48 h, 0.1 %", "setting": "in vitro; Cell Viability", "result": 49, "unit": "%"}, {"measurement": "viability at 48 h, 0.5 %", "setting": "in vitro; Cell Viability", "result": 1.2, "unit": "%"}, {"measurement": "viability at 72 h, 0.05 %", "setting": "in vitro; Cell Viability", "result": 57.5, "unit": "%"}, {"measurement": "viability at 72 h, 0.1 %", "setting": "in vitro; Cell Viability", "result": 49.1, "unit": "%"}, {"measurement": "viability at 24 h, 0.05 %", "setting": "in vitro; Cell Viability, Mean (%)", "result": 55.7, "unit": "%"}, {"measurement": "viability at 24 h, 0.1 %", "setting": "in vitro; Cell Viability, Mean (%)", "result": 45.9, "unit": "%"}, {"measurement": "viability at 24 h, 0.5 %", "setting": "in vitro; Cell Viability, Mean (%)", "result": 13.3, "unit": "%"}, {"measurement": "viability at 24 h, 1 %", "setting": "in vitro; Cell Viability, Mean (%)", "result": 0.4, "unit": "%"}, {"measurement": "viability at 24 h, 2 %", "setting": "in vitro; Cell Viability, Mean (%)", "result": 0.3, "unit": "%"}, {"measurement": "viability at 24 h, […]", "setting": "in vitro; Cell Viability, Mean (%)", "result": 0.4, "unit": "%"}, {"measurement": "viability at 48 h, 0.05 %", "setting": "in vitro; Cell Viability, Mean (%)", "result": 57.3, "unit": "%"}, {"measurement": "viability at 48 h, 0.1 %", "setting": "in vitro; Cell Viability, Mean (%)", "result": 42, "unit": "%"}, {"measurement": "viability at 48 h, 0.5 %", "setting": "in vitro; Cell Viability, Mean (%)", "result": 1.5, "unit": "%"}, {"measurement": "viability at 48 h, 1 %", "setting": "in vitro; Cell Viability, Mean (%)", "result": 1.5, "unit": "%"}, {"measurement": "viability at 48 h, 2 %", "setting": "in vitro; Cell Viability, Mean (%)", "result": 1.2, "unit": "%"}, {"measurement": "viability at 48 h, […]", "setting": "in vitro; Cell Viability, Mean (%)", "result": 1.3, "unit": "%"}, {"measurement": "viability at 72 h, 0.05 %", "setting": "in vitro; Cell Viability, Mean (%)", "result": 53.7, "unit": "%"}, {"measurement": "viability at 72 h, 0.1 %", "setting": "in vitro; Cell Viability, Mean (%)", "result": 42.2, "unit": "%"}, {"measurement": "viability at 72 h, 0.5 %", "setting": "in vitro; Cell Viability, Mean (%)", "result": 1.1, "unit": "%"}, {"measurement": "viability at 72 h, 1 %", "setting": "in vitro; Cell Viability, Mean (%)", "result": 0.9, "unit": "%"}, {"measurement": "viability at 72 h, 2 %", "setting": "in vitro; Cell Viability, Mean (%)", "result": 1, "unit": "%"}, {"measurement": "viability at 72 h, […]", "setting": "in vitro; Cell Viability, Mean (%)", "result": 1, "unit": "%"}, {"measurement": "overall cytotoxicity to ARPE-19 cells (conclusion in words)", "setting": "ARPE-19 cells [2]", "result": "very aggressive impact"}, {"measurement": "living cells (morphology observation)", "setting": "ARPE-19 cells [3]", "result": "no living cells survived"}, {"measurement": "Morphology limit concentration (%)", "setting": "ARPE-19 cells [3]; human", "result": 0.07, "unit": "%"}, {"measurement": "Cell Morphology score, Mean", "setting": "ARPE-19 cells [3]; human, 24 h, 0.05 %", "result": 3.3}, {"measurement": "Cell Morphology score, Mean", "setting": "ARPE-19 cells [3]; human, 24 h, 0.1 %", "result": 3.0}, {"measurement": "Cell Morphology score, Mean", "setting": "ARPE-19 cells [3]; human, 24 h, 0.5 %", "result": 1.0}, {"measurement": "Cell Morphology score, Mean", "setting": "ARPE-19 cells [3]; human, 24 h, 1 %", "result": 1.0}, {"measurement": "Cell Morphology score, Mean", "setting": "ARPE-19 cells [3]; human, 24 h, 2 %", "result": 1.0}, {"measurement": "Cell Morphology score, Mean", "setting": "ARPE-19 cells [3]; human, 24 h, […]", "result": 1.0}, {"measurement": "Cell Morphology score, Mean", "setting": "ARPE-19 cells [3]; human, 48 h, 0.05 %", "result": 3.7}, {"measurement": "Cell Morphology score, Mean", "setting": "ARPE-19 cells [3]; human, 48 h, 0.1 %", "result": 3.0}, {"measurement": "Cell Morphology score, Mean", "setting": "ARPE-19 cells [3]; human, 48 h, 0.5 %", "result": 1.0}, {"measurement": "Cell Morphology score, Mean", "setting": "ARPE-19 cells [3]; human, 48 h, 1 %", "result": 1.0}, {"measurement": "Cell Morphology score, Mean", "setting": "ARPE-19 cells [3]; human, 48 h, 2 %", "result": 1.0}, {"measurement": "Cell Morphology score, Mean", "setting": "ARPE-19 cells [3]; human, 48 h, […]", "result": 1.0}, {"measurement": "Cell Morphology score, Mean", "setting": "ARPE-19 cells [3]; human, 72 h, 0.05 %", "result": 3.3}, {"measurement": "Cell Morphology score, Mean", "setting": "ARPE-19 cells [3]; human, 72 h, 0.1 %", "result": 3.0}, {"measurement": "Cell Morphology score, Mean", "setting": "ARPE-19 cells [3]; human, 72 h, 0.5 %", "result": 1.0}, {"measurement": "Cell Morphology score, Mean", "setting": "ARPE-19 cells [3]; human, 72 h, 1 %", "result": 1.0}, {"measurement": "Cell Morphology score, Mean", "setting": "ARPE-19 cells [3]; human, 72 h, 2 %", "result": 1.0}, {"measurement": "Cell Morphology score, Mean", "setting": "ARPE-19 cells [3]; human, 72 h, […]", "result": 1.0}, {"measurement": "pH", "setting": "[4]; [5]", "result": 8}, {"measurement": "pH", "setting": "[4]; [6]", "result": 8.1}, {"measurement": "pH", "setting": "[4]; [7]", "result": 8}, {"measurement": "pH", "setting": "[4]; [8]", "result": 7.9}, {"measurement": "pH", "setting": "[4]; [9]", "result": 8}, {"measurement": "pH", "setting": "[4]; [10]", "result": 7.9}]}]}
